According to patent US10918687B2, “Kava derived therapeutic compounds and methods of use thereof” (KUALITY HERBCEUTICS LLC, priority 2013, dated 2021):
Several values for one entry are separate records, joined by “and”; a condition that tells them apart may be missing. Identical values can stand only once.

What was measured:
[1] = test system: NNK-induced lung tumorigenesis; test: NNK-induced lung adenoma formation in A/J mice; type: in vivo; conditions: for reduction of adenoma multiplicity / reduction of adenoma incidence / adenoma multiplicity: Example 4, Day 119; for adenoma multiplicity: NNK control 13.9±6.9; for minimum effective dose: dietary dose against NNK-induced lung adenoma formation
Description: Female A/J mice, 5-6 weeks of age from the Jackson Laboratory (Bar Harbor, Me.), were handled according to animal welfare protocols approved by IACUC at the University of Minnesota. […] After one-week acclimation, mice were weighed, randomized into different groups and switched to AIN-93G-powdered diet, defined as Day 1. The number of mice in each group was specified in the Result Section. On Day 7 and Day 14, mice in the negative control groups received 0.1 mL physiological saline solution while mice in the other groups received NNK (100 and 67 mg/kg respectively in 0.1 mL of physiological saline solution) via i.p. injection. At the end of Day 21, mice were switched to AIN-93M-powdered diet until the end of the study. Diet consumption was measured twice weekly and bodyweight was monitored weekly. All mice were euthanized with an overdose of carbon dioxide. The lungs were collected and tumors on the surface of the lung were counted.
Data on lung adenoma multiplicity were reported as mean±SD (n=5-40). […] For Experiment 2, unpaired t-test was used for comparison between NNK control and kava treatment groups. Two-sided p-value≤0.05 was considered statistically significant. Data on DNA adducts were reported as mean±SD (n=3). For the time-course study, unpaired […] was used for comparisons between NNK control and kava treatment groups. Two-sided p-value≤0.05 was considered statistically significant: *p<0.05, **p<0.01, and ***p<0.001. For the 24-h time point study, one-way ANOVA was used to compare means.
After one-week acclimation, mice were weighed, randomized into eight groups and switched to the AIN-93 G diet on a date defined as Day 1. The number of mice in each group is specified in the Results Section (FIG. 36). Mice were fed diets supplemented with different compounds at the dose specified in the Results Section during Day 1-Day 14. On Day 7 and Day 14, mice in the negative control group received 0.1 mL of saline solution while mice in the other groups received NNK (100 and 67 mg/kg, respectively, in 0.1 mL of saline solution) via i.p. injection. At the end of Day 21, mice were switched to the AIN-93 M diet until the end of the study. The diet was replenished twice weekly. The diet consumption was measured twice weekly and the bodyweight was monitored weekly. This study was terminated at the end of Day 119. All mice were euthanized with CO2 overdosing.

[2] = test system: NNK-induced DNA adducts in lung tissues; test: NNK-induced DNA adducts in A/J mouse lung tissues (LC-ESI-MS/MS); type: in vivo, A/J mice; conditions: 24 h after NNK; for minimum chemopreventive (effective) dose estimated from DNA adduct reduction: dose-response of O^6-mG reduction in lung
Source text: DNA was isolated from the whole lung tissue of each individual mouse following Puregene DNA isolation protocol (Qiagen Corp, Valencia, Calif.) (Urban et al., Chem Res Toxicol 2012; 25:2167-78). 7-pobG, O^2-pobdT, O^6-pobdG, and O^6-mG were quantified by LC-ESI-MS/MS, following established protocols (Urban et al., Chem Res Toxicol 2012; 25:2167-78; Peterson et al., Cancer Res 1991; 51:5557-64).
After one-week acclimation, A/J mice were weighed and randomized into seven groups (3 mice per group) and switched to the AIN-93 G diet on a date defined as Day 1. Mice in Groups 1 and 2 were given the AIN-93 G diet during Day 1-Day 7. Mice in Groups 3-7 were given the AIN-93 G diet supplemented with desmethoxyyangonin, (+)-DHK, (+)-kavain, (+)-DHM, or (+)-methysticin respectively, at a dose of 1 mg/g of diet during Day 1-Day 7. Mice in Groups 2-7 were given a single dose of NNK at 100 mg/kg bodyweight in saline (0.1 ml) via intraperitoneal (i.p.) injection at the beginning of Day 7 while mice in Group 1 were given saline (0.1 ml). Mice were euthanized by CO2 overdosing 24 h after NNK treatment, and lung tissues were collected and stored at −80° C. until DNA isolation. A number of NNK-induced DNA modifications (O^6-mG, 7-pobG, O^6-pobdG and O^2-pobdT) were quantified by following a reported procedure (Leitzman, P et al. (2014) Cancer. Prev. Res., 7: 86-96).
After one-week acclimation, A/J mice were weighed and randomized into ten groups (3 mice per group except for Group 1 that had one mouse as the negative control) and switched to the AIN-93 G diet on a date defined as Day 1. Mice in Groups 1 and 2 were given the AIN-93 G diet during Day 1-Day 7. Mice in Groups 3-10 were given the AIN-93 G diets supplemented with kava, (+)-DHK, (+)-DHM, and synthetic (±)-DHM respectively at the specified dose during Day 1-Day 7. Mice in Groups 2-10 were given a single dose of NNK at 100 mg/kg bodyweight in saline (0.1 ml) via i.p. injection at the beginning of Day 7 while the mouse in Group 1 was given saline (0.1 ml). Mice were euthanized by CO2 overdosing 24 h after NNK treatment, and lung and liver tissues were collected and stored at −80° C. until DNA isolation. A set of NNK-induced DNA adducts (O^6-mG, 7-mG, 7-pobG, O^6-pobdG, O^2-pobdT, 7-phbG, O^6-phbdG and O^2-phbdT) were quantified by following reported procedures (Leitzman, P et al. (2014) Cancer. Prev. Res., 7: 86-96; Peterson, L A et al. (2013) Chem. Res. Toxicol. 26: 1464-1473; Upadhyaya, P et al. (2008) Chem. Res. Toxicol. 21: 1468-1476). For 7-mG isolation, DNA (30 μg) was dissolved in 10 mM sodium phosphate buffer, pH 7 (500 μL) and spiked with [^13C1^2H3]7-mG (10 pmol). Samples were heated to 80° C. for 30 minutes. An aliquot (100 μL) was removed for 7-mG analysis.

[3] = 1, 0.25, 0.1 and 0.01 mg/g of diet
[4] = kava 5 and 1.25 mg/g, (+)-DHM 1, 0.25, 0.1 and 0.01 mg/g of diet

| Compound | reduction of adenoma multiplicity ([1]; 0.05 mg/g of diet (50 ppm) Day 1-Day 14) | reduction of adenoma incidence ([1]; 0.05 mg/g of diet Day 1-Day 14) [%] | adenoma multiplicity ([1]; 0.05 mg/g of diet Day 1-Day 14) [lung adenoma/mouse] | reduction of adenoma incidence ([1]; 0.5 mg/g of diet Day 1-Day 14) [%] | reduction of adenoma multiplicity ([1]; 0.5 mg/g of diet Day 1-Day 14) [%] | adenoma multiplicity ([1]; 0.5 mg/g of diet Day 1-Day 14) [lung adenoma/mouse] | minimum effective dose [1] | effect on O^6-mG ([2]; 0.01 mg/g of diet) | extent of reduction in O^6-mG ([2]; 0.1 mg/g of diet) | effect on 7-mG [2, 3] | effect on PHB adducts (7-phbG, O^6-phbdG, O^2-phbdT) [2, 3] | minimum chemopreventive (effective) dose estimated from DNA adduct reduction [2] | effect on NNK-induced O^6-mG ([2]; isolated kavalactones 1 mg/g of diet Day 1-Day 7) | effect on O^6-mG, dose-response [2, 4] | effect on POB adducts, dose-response [2, 4] |
| --- | --- | --- | --- | --- | --- | --- | --- | --- | --- | --- | --- | --- | --- | --- | --- |
| COC1=CC(=O)O[C@@H](CCc2ccc3c(c2)OCO3)C1 [(+)-DHM, (+)-dihydromethysticin] | 97% and 97.1% | 40 | 0.6±0.5 | 40 | 97.1 | 0.6±0.5 | lower than 0.05 mg/g | no effect | comparable to that induced by kava at a dose of 1.25 mg/g of diet | dose-dependently reduced | dose-dependently reduced | 0.01-0.1 mg/g of diet | significantly reduced | preferentially and dose-dependently reduced | weaker effects |
| COC1=CC(=O)O[C@@H](CCc2ccc3c(c2)OCO3)C1 [DHM, dihydromethysticin] |  |  |  |  |  |  | lower than 0.05 mg/g |  |  |  |  | 0.01-0.1 mg/g of diet |  |  |  |
